Patent US8883750B2, “Method of treating diabetes” (Gilead Sciences, Inc., priority 2002, dated 2014)

Tests used:
[1] = system: diabetic patients; assay: CARISA study: glucose, triglyceride and cholesterol values of diabetic patients; format: in vivo, human; conditions: for Glucose, change from baseline / Triglycerides, change from baseline: all diabetic patients, mean ± SEM; for Glucose, change from baseline: placebo change 1.2 ± 7.1; for Triglycerides, change from baseline: placebo change 26.3 ± 21.2
Procedure: The […] (Combination Assessment of Ranolazine in Stable Angina) study randomized 823 symptomatic chronic angina patients on diltiazem, atenolol or amlodipine to ranolazine 750 mg bid, 1000 mg bid or placebo in a parallel, double-blind, 12 week study. Modified Bruce treadmill tests were performed at baseline, and after 2, 6, and 12 weeks of treatment at trough and peak plasma levels. The ranolazine formulation used in this study was that shown in Example 10.

[2] = system: diabetic patients; assay: Open-label long-term ranolazine treatment of MARISA/CARISA diabetic patients; format: in vivo, human
Procedure: Efficacy and tolerability of ranolazine were similar in both diabetic and non-diabetic patients in both MARISA and CARISA. In diabetic patients in CARISA (N=131), ranolazine 750 and 1000 mg bid were associated with a mean absolute reduction in HbA1c of 0.48 percentage points and 0.70 percentage points, respectively, compared to placebo at 12 weeks (each p<0.01). The reductions versus placebo were greater in those patients on insulin (N=31; 0.84 and 1.05 percentage points), on 750 and 1000 mg bid (p<0.02 and p<0.01), respectively. Fasting glucose was not affected by ranolazine in diabetic patients in CARISA, regardless of insulin treatment; one hypoglycemic episode was reported on placebo and one on ranolazine.

[3] = system: patients with chronic angina; assay: MARISA study: treadmill exercise capacity, ranolazine alone; format: in vivo, human; conditions: N=191
Source text: (§1) Angina frequency and nitroglycerin consumption were reduced by ranolazine. The ranolazine formulation used in the CARISA and MARISA studies was that shown in Example 10. The most frequently reported adverse events (dizziness constipation and nausea) were generally mild and occurred in fewer than 10% of patients. The potential use of ranolazine in diabetics is of interest because approximately one in four angina patients has diabetes.

[4] = Solubility of ranolazine in aqueous solutions as a function of pH; format: physicochemical
[5] = system: chronic angina patients; assay: Adverse events in CARISA and MARISA; format: in vivo, human; conditions: for Patients with at least one adverse event: CARISA
Procedure: (§2) The CARISA (Combination Assessment of Ranolazine in Stable Angina) study randomized 823 symptomatic chronic angina patients on diltiazem, atenolol or amlodipine to ranolazine 750 mg bid, 1000 mg bid or placebo in a parallel, double-blind, 12 week study. Modified Bruce treadmill tests were performed at baseline, and after 2, 6, and 12 weeks of treatment at trough and peak plasma levels. The ranolazine formulation used in this study was that shown in Example 10.
as §1

[6] = system: symptomatic chronic angina patients; assay: CARISA study: modified Bruce treadmill exercise tests and angina, ranolazine added to background anti-anginal therapy; format: in vivo, human; conditions: for Prolongation of exercise duration at trough drug concentrations: Example 10 formulation
Procedure: as §2, §1

[7] = system: angina patients; assay: Angina clinical trials using ranolazine: blood parameters (summary in background); format: in vivo, human
Source text: One compound disclosed therein, (±)-N-(2,6-dimethylphenyl)-4-[2-hydroxy-3-(2-methoxyphenoxy)-propyl]-1-piperazineacetamide (known as ranolazine) is undergoing clinical trials for the treatment of angina. […] Ranolazine was also found to reduce triglyceride levels in non-diabetic patients. Ranolazine was also found to lower glucose plasma levels and, over the long term, total cholesterol levels, while increasing HDL cholesterol levels. Thus, ranolazine provides a method of treating diabetes pre-diabetes, or the non-diabetes condition by reducing the levels of potentially toxic metabolites in blood and/or complications associated with diabetes. Ranolazine also can reduce the number of medications necessary for a patient with both cardiovascular problems and diabetes or pre-diabetes.

[8] = system: angina patients with diabetes; assay: CARISA study: hemoglobin A1c in angina patients with diabetes; format: in vivo, human; conditions: 12 weeks; for Average absolute reduction in HbA1c compared to placebo: all diabetic patients (N=131); for Absolute reduction in HbA1c compared to placebo: diabetic patients on insulin (N=31)
Procedure: HbA1c levels were assayed following a modification of the method of Phillipov (Components of total measurement error for hemoglobin A1c determination. Phillipov, G., et al. Clin. Chem. (2001), 47(10):1851). (see FIG. 1) The […] (Combination Assessment of Ranolazine in Stable Angina) study randomized 823 symptomatic chronic angina patients on diltiazem, atenolol or amlodipine to ranolazine 750 mg bid, 1000 mg bid or placebo in a parallel, double-blind, 12 week study. Modified Bruce treadmill tests were performed at baseline, and after 2, 6, and 12 weeks of treatment at trough and peak plasma levels. The ranolazine formulation used in this study was that shown in Example 10.

[9] = first 12 weeks of treatment, diabetic patients in CARISA
[10] = over 3 years of open-label treatment, combined MARISA/CARISA diabetic population
[11] = CARISA, diabetic and non-diabetic patients

COc1ccccc1OCC(O)CN1CCN(CC(=O)Nc2c(C)cccc2C)CC1 (racemic) [ranolazine, N-(2,6-dimethylphenyl)-4-[2-hydroxy-3-(2-methoxyphenoxy)propyl]-1-piperazineacetamide]
Glucose, change from baseline ([1]; 750 mg bid, baseline 168 ± 8.0): 8.0 ± 8.8 mg/dL | Triglycerides, change from baseline ([1]; 750 mg bid, baseline 192.0 ± 14.5): 21.2 ± 13.5 mg/dL | Glucose, change from baseline ([1]; 1000 mg bid, baseline 165.2 ± 7.8): 1.7 ± 7.2 mg/dL | Triglycerides, change from baseline ([1]; 1000 mg bid, baseline 196 ± 17.5): -7.3 ± 9.3 mg/dL | Fasting glucose ([1]; diabetic patients in CARISA, regardless of insulin treatment): not affected | HDL/LDL ratio [1, 9]: changed little | Mean increase in HDL cholesterol [1, 9]: up to 5 mg/dL | Mean increase in LDL cholesterol [1, 9]: ≤ 11 mg/dL | Mean increase in total cholesterol [1, 9]: up to 16 mg/dL | Decrease of HbA1c from baseline ([2]; after 12-24 months of open-label treatment, diabetic patients): 1.1 percentage points | HDL cholesterol [2, 10]: continued to increase | LDL cholesterol [2, 10]: decreased from baseline | Total cholesterol [2, 10]: decreased from baseline | Treadmill exercise capacity [3]: increased | Solubility in aqueous solutions (in words) ([4]; aqueous solutions having a pH above about 6.5): relatively insoluble | USP Solubility Class ([4]; solution pH 4.81): Freely Soluble | USP Solubility Class ([4]; solution pH 4.89): Soluble | USP Solubility Class ([4]; solution pH 4.90): Soluble | USP Solubility Class ([4]; solution pH 5.04): Soluble | USP Solubility Class ([4]; solution pH 5.35): Sparingly Soluble | USP Solubility Class ([4]; solution pH 5.82): Slightly soluble | USP Solubility Class ([4]; solution pH 6.46): Slightly soluble | USP Solubility Class ([4]; solution pH 6.73): Very slightly soluble | USP Solubility Class ([4]; solution pH 7.08): Very slightly soluble | USP Solubility Class ([4]; solution pH 7.59 (unbuffered water)): Very slightly soluble | USP Solubility Class ([4]; solution pH 7.79): Very slightly soluble | USP Solubility Class ([4]; solution pH 12.66): Very slightly soluble | Patients with the most frequently reported adverse events (dizziness constipation and nausea) ([5]; CARISA and MARISA, generally mild): < 10% | Patients with at least one adverse event ([5]; diabetic patients, 750 mg bid (placebo 25%)): 25% | Patients with at least one adverse event ([5]; diabetic patients, 1000 mg bid (placebo 25%)): 34% | Patients with at least one adverse event ([5]; non-diabetic patients, 750 mg bid (placebo 27%)): 33% | Patients with at least one adverse event ([5]; non-diabetic patients, 1000 mg bid (placebo 27%)): 32% | Hypoglycemic episodes reported ([5]; diabetic patients in CARISA (one on placebo)): one | Prolongation of exercise duration at trough drug concentrations ([6]; 750 mg bid, angina patients with diabetes): 29 s | Prolongation of exercise duration at trough drug concentrations ([6]; 750 mg bid, non-diabetic angina patients): 22 s | Prolongation of exercise duration at trough drug concentrations ([6]; 1000 mg bid, angina patients with diabetes): 34 s | Prolongation of exercise duration at trough drug concentrations ([6]; 1000 mg bid, non-diabetic angina patients): 21 s | Angina frequency [6, 11]: decreased | Time to angina [6, 11]: increased | Angina frequency ([6]; MARISA and CARISA): reduced | Nitroglycerin consumption ([6]; MARISA and CARISA): reduced | Treadmill exercise capacity ([6]; added to atenolol, diltiazem, or amlodipine, CARISA, N=823): increased | Exercise duration (ED) at trough and peak (in words) ([6]; similarly in diabetic and non-diabetic patients): prolonged | Glucose plasma levels ([7]; angina clinical trials): lower | HDL cholesterol levels ([7]; angina clinical trials): increasing | Hemoglobulin A1 (HbA1c) levels ([7]; diabetic angina patients): reduced | Triglyceride levels ([7]; diabetic angina patients, over the long term): reduced | Triglyceride levels ([7]; non-diabetic patients): reduce | Total cholesterol levels ([7]; over the long term): lower | Average absolute reduction in HbA1c compared to placebo ([8]; 750 mg bid, p<0.01): 0.48 percentage points | Absolute reduction in HbA1c compared to placebo ([8]; 750 mg bid, p<0.02): 0.84 percentage points | Absolute reduction in HbA1c compared to placebo ([8]; 750 mg bid, p<0.02, listed as Ranolazine): 0.8 percentage points | Average absolute reduction in HbA1c compared to placebo ([8]; 1000 mg bid, p<0.01): 0.70 percentage points | Absolute reduction in HbA1c compared to placebo ([8]; 1000 mg bid, p<0.01): 1.05 percentage points | Absolute reduction in HbA1c compared to placebo ([8]; 1000 mg bid, p<0.01, listed as Ranolazine): 1.1 percentage points
